Laboratory results: US4731363A, “Thromboxane synthase inhibitors as insulin lowering agents and antiobesity agents” (priority 1986, dated 1988)
pIC50: −log10 of the molar value.

How the values were obtained:
[1] = biological target: T1, thromboxane synthase (Human Platelet Microsomes) (Homo sapiens, UniProt P24557); assay: Thromboxane synthase inhibition, human platelet microsomes; format: biochemical; conditions: enzyme source H = Human Platelet Microsomes; read-out: IC50
T1 construct: Platelets were obtained from 320 ml of whole blood and resuspended in 5.0 ml of Krebs-Hensleit buffer; from tissue; host or cells: human platelets (microsomes, 110,000 g pellet)
T1 sequence (P24557 1-533): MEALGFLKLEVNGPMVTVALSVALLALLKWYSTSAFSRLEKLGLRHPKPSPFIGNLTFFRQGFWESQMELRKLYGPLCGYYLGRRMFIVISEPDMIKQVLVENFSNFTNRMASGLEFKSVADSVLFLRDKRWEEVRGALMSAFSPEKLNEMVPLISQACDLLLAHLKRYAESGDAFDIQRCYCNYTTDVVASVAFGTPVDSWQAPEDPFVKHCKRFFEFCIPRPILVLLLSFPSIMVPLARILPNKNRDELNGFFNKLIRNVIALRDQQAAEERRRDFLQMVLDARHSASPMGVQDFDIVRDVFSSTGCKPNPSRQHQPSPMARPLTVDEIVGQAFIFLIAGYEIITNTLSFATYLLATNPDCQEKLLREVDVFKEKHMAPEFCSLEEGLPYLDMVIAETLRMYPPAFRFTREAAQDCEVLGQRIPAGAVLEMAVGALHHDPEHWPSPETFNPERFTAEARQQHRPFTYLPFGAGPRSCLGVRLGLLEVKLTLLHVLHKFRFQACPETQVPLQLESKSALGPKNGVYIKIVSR
Procedure: In said assay procedure, microsomes from guinea pig lung or human platelets are added to an endoperoxide intermediate in prostaglandin biosynthesis and the inhibitor in phosphate buffer solution followed by incubation, extraction and determination of the extent of thromboxane synthase inhibition by TLC with radiochromatographic profile analysis.
(§1) Determination of Inhibition of Thromboxane Synthase Activity Isolation of Human Platelet Microsomes
Platelets were obtained from 320 ml of whole blood and resuspended in 5.0 ml of Krebs-Hensleit buffer (CA^+2 free). After three consecutive freeze-thawing cycles, homogenization and centrifugation at 12,000 g for 45 min., the 12,000 supernatant was recentrifuged at 110,000 g for 60 min. The resultant pellet was resuspended in phosphate buffer (0.5 ml, 0.1M, pH 7.5) and stored at -70° until use.
Low specific activity PGH2 (3.3 μCi/μmole) was obtained from Dr. W. E. M. Lands of the University of Michigan. PGH2 of higher specific activity (16.0 μCi/μmole) was purchased from Ran Biochemicals, Tel-Aviv, Israel.
The inhibitors tested were prepared as solutions (1-10 mg/ml) in 95% ethanol.
(§2) Assay for Thromboxane Synthase
(§3) To a 12×75 mm tube containing [1-^14 C] PGH2 (2 μg, 0.01 μCi or 0.05 μCi) and inhibitor (1 mM final assay concentration, in 10 μl of ethanol) in 225 μl of phosphate buffer (0.1M, pH 7.5), was added to an aliquot of guinea pig lung microsomes (25 μl, containing 400 μg protein) or an aliquot of human platelet microsomes (25 μl, containing .congruent.[…] protein). The solution was incubated in a 22° water bath for 2 min.; ether (1 ml) and citric acid (25 μMoles) were added, and the tube plunged into an acetone-dry ice bath. The ether extract was transferred to a 1.0 ml Reacti-vial, and the volume reduced under nitrogen to .congruent.50 μl.
(§4) The extract was applied to an I.T.L.C., type SG, glass fiber sheet (Gelman Instrument Co., Ann Arbor, Mich.) and developed in isooctane; methyl ethyl ketone: acetic acid (100:19:1 or 100:9:1) (19). The sheets were air dried and scanned using a Berthold LB 2760 Radiochromatographic Scanner. In certain cases, based on the radiochromatographic profile obtained, the sheets were cut, the appropriate regions placed in scintillation vials, 10 ml of LSC cocktail (Yorktown Research, S. Hackensack, NJ) added, and the relative cpm determined.

TXA2 Synthase = assay: TXA2 synthase IC50 as listed in Table I (enzyme source not stated); format: biochemical
Procedure: as §1, §2, §3, §4

male Zucker rats = assay: Carcass weight and carcass lipid and protein levels in male Zucker rats; format: in vivo, rat; conditions: 29 days; for Carcass Protein % of carcass weight / Carcass Protein total / Carcass Lipids % of carcass weight / Carcass Lipids total / Carcass Weight: mean ± S.E.
Procedure: In one study, carcass composition was determined. After treatment, rats were sacrificed by decapitation, and livers and blood were removed. Carcasses were weighed, saponified in alcoholic potassium hydroxide, acidified and extracted with petroleum ether. The petroleum ether supernatants were transferred to preweighed glass vials, evaporated immediately to dryness under nitrogen and reweighed. Total carcass data are expressed in grams and percentages of carcass weight. An aliquot of saponified carcass extract was neutralized, and total carcass nitrogen was determined using Kjeldahl procedure. Carcass protein data are expressed in grams and percentages of carcass weight.
^a Four month old male Zucker rats (four per group) were fed G70:1%
corn oil diet ad libitum for 24 days prior to treatment.
1[4(1H--imidazol1-yl)phenyl]ethanone was then mixed into the G70:1% corn
oil diet and rats were fed ad libitum for 29 days. On day 29 rats were
killed by decapitation and the carcasses (minus liver and blood) were
analyzed for total lipid and protein. Each value is the mean ± S.E.
^b Amount of 1[4(1H--imidazol1-yl)phenyl]ethanone ingested per day pe
^c Values in parentheses indicate percent of control.

[2] = Lean, 98 mg per day per kg in diet
[3] = Lean, 98 mg per day per kg in diet, P ≤ 0.05
[4] = Obese, 87 mg per day per kg in diet

pIC50 [1]: 5.00 to 6.00
pIC50 (TXA2 Synthase): 5.00
Structure (SMILES): CC(=O)c1ccc(-n2ccnc2)cc1 [1-[4-(1H--imidazol-1-yl)phenyl]ethanone, 1-[4-(1H-imidazol-1-yl)phenyl]ethanone]
Carcass Lipids % of carcass weight, percent of control (male Zucker rats; [2]): 60% of control
Carcass Lipids total, percent of control (male Zucker rats; [2]): 50% of control
Carcass Protein % of carcass weight, percent of control (male Zucker rats; [2]): 111% of control
Carcass Protein total, percent of control (male Zucker rats; [2]): 87% of control
Carcass Weight, percent of control (male Zucker rats; [2]): 84% of control
Carcass Protein % of carcass weight (male Zucker rats; [2]): 21 ± 2 % of carcass weight
Carcass Protein total (male Zucker rats; [2]): 75 ± 5 g
Carcass Lipids % of carcass weight (male Zucker rats; [3]): 8 ± 1 % of carcass weight
Carcass Lipids total (male Zucker rats; [3]): 29 ± 5 g
Carcass Weight (male Zucker rats; [3]): 361 ± 27 g
Carcass Lipids % of carcass weight, percent of control (male Zucker rats; [4]): 104% of control
Carcass Lipids total, percent of control (male Zucker rats; [4]): 86% of control
Carcass Protein % of carcass weight, percent of control (male Zucker rats; [4]): 131% of control
Carcass Protein total, percent of control (male Zucker rats; [4]): 109% of control
Carcass Weight, percent of control (male Zucker rats; [4]): 83% of control
Carcass Lipids % of carcass weight (male Zucker rats; [4]): 49 ± 1 % of carcass weight
Carcass Lipids total (male Zucker rats; [4]): 225 ± 6 g
Carcass Protein % of carcass weight (male Zucker rats; [4]): 18 ± 2 % of carcass weight
Carcass Protein total (male Zucker rats; [4]): 81 ± 4 g
Carcass Weight (male Zucker rats; Obese, 87 mg per day per kg in diet, P ≤ 0.05): 460 ± 28 g
